Legend:
GPIIb/IIIa = biological target: T1, GPIIb/IIIa (Homo sapiens, UniProt P05106+P08514); assay: DDAB ELISA Type-2 screen of blood donor plasma (general population); assay type: binding; settings: American Red Cross blood donors
T1 construct: GPIIb/IIIa was either obtained from commercial sources (Enzyme Research Laboratories) or purified as outlined below; Outdated platelet concentrates; tissue Enzyme Research Laboratories (alternative source; no catalogue number given); host or cells: outdated platelet concentrates (Interstate Blood Bank)
Procedure: (§1) In the ELISA Type-2 procedure, Costar Enzyme Immunoassay/Radioimmunoassay [EIA/RIA] 96 well flat bottom plates (medium binding [#3591]) were coated (4° C., 16 hours) with 250 ng of GPIIb/IIIa in phosphate buffered saline (PBS) containing 1 mM CaCl2 and 0.5 mM MgCl2 (PBS/Ca/Mg) in the presence or absence of the indicated GPIIb/IIIa antagonist (100 nM). After three washing steps (PBS/Ca/Mg containing 0.05% v/v Tween 20), plasma was diluted 1:5 in PBS/Ca/Mg containing 0.05% Tween 20 and added to the coated wells in the absence or presence of the indicated GPIIb/IIIa antagonist (100 nM) for 1 hour at room temperature. The wells were washed (PBS/Ca/Mg containing 0.05% v/v Tween 20) and incubated with peroxidase-labeled goat anti-human IgG (y) (Kirkegaard & Perry) for 1 hour at room temperature. The wells were washed (PBS/Ca/Mg containing 0.05% v/v Tween 20) and developed with o-phenyleninediamine [OPD] (0.4 mg/mL in phosphate citrate buffer containing sodium perborate [Sigma]). The change of absorbance was determined kinetically for 15 minutes at […] using a standard ELISA reader. Results are expressed as either delta OD [change in optical density] (Vmax plus compound)−(Vmax minus compound), or the ratio (Vmax plus compound/Vmax minus compound).
The occurrence of DDABs in the general population was tested. Plasma samples from blood donors were obtained from the American Red Cross and tested for reactivity with Compound A and Compound B in the DDAB ELISA Type-2 procedure. While the majority of the blood donors were negative in the DDAB ELISA, 2.2 and 14.6% donors presented a reactivity (delta>3) with Compound A and Compound B, respectively. A reactivity with a delta >5 was only evident in 1.3% and 7.1% of the blood donors with Compound A and Compound B, respectively. Thus, the prevalence and titer of pre-existing DDABs is relatively low in the general population and varies with the respective GPIIb/IIIa antagonist employed.

[1] = Blood concentration in dosed patients; assay type: in vivo
[2] = system: platelet aggregation in platelet-rich plasma; assay: ADP-induced platelet aggregation in platelet-rich plasma (PRP); assay type: cell-based
Procedure: (§2) The reactivity of the patient's plasma with Compound A and metabolites thereof was compared. Metabolites of Compound A were isolated from rat urine and tested for their ability to prevent platelet aggregation in platelet-rich plasma. The ability of DDABs present in plasma from a patient to bind to GPIIb/IIIa in the presence of the indicated metabolites of Compound A was tested using the GPIIb/IIIa DDAB ELISA. All three metabolites of Compound A were active in preventing ADP-induced platelet aggregation using platelet rich plasma. While the metabolites only differ from the parental compound (Compound A) with respect to hydroxylation of a single carbon atom, the reactivity of the patient's DDABs with metabolite M-3 was only 50% and that with metabolite M-2 was undetectable.

gel purified platelets = assay: Distribution of DDABs from plasma to gel purified platelets, dose-response of antagonist, read by DDAB ELISA; assay type: cell-based, human; settings: plasma of healthy donor with DDABs to Compound A
Procedure: Panel A: Citrate plasma was obtained from two patients (307, 330) and a chimpanzee (A264) presenting with thrombocytopenic episodes while treated with GPIIb/IIIa antagonists Compound A or Compound D, respectively. The resulting plasma was incubated (30 minutes, room temperature) with gel purified platelets in the absence (closed bars) or presence (open bars) of Compound A (307, 330), or Compound D (A264). Platelets were removed by centrifugation, and the resulting plasma was analyzed by a GPIIb/IIIa-specific DDAB ELISA. The ELISA determines the binding of antibodies to GPIIb/IIIa in the presence of Compound A (307, 330) or Compound D (A264). […] Panel B: Citrate plasma derived from chimpanzee A264 (open circles) or an apparently healthy donor (closed circles) containing DDABs to Compound A was incubated with gel purified platelets in the presence of the indicated dose-response of Compound D (A264) or Compound A (healthy donor) as in panel A. Platelet poor plasma was prepared and analyzed by the DDAB ELISA as in panel A. Results are expressed as percentage inhibition of DDABs in plasma in comparison to samples treated with platelets in the absence of GPIIb/IIIa antagonist.
For solution-phase absorption in the DDAB ELISA, gel filtered platelets were prepared. […] Platelet-containing fractions were manually collected and platelet concentration was determined using a Coulter Counter. […]

immobilized GPIIb/IIIa = biological target: T2, immobilized GPIIb/IIIa (Homo sapiens, UniProt P05106+P08514); assay: GPIIb/IIIa DDAB ELISA: binding of plasma drug-dependent antibodies in presence versus absence of GPIIb/IIIa antagonist; settings: for reactivity of the thrombocytopenic chimpanzee plasma in the DDAB ELISA / reactivity of the patient's plasma in the DDAB ELISA: in words; for ratio mOD/minute in the presence versus absence of the respective compound: antagonist 100 nM
T2 construct: GPIIb/IIIa was either obtained from commercial sources (Enzyme Research Laboratories) or purified as outlined below; Outdated platelet concentrates; tissue Enzyme Research Laboratories (alternative source; no catalogue number given); host or cells: outdated platelet concentrates (Interstate Blood Bank)
Procedure: as §1
In the ELISA Type-1 procedure, after coating with GPIIb/IIIa, the plates were blocked with 1% goat serum (VWR Scientific) and 0.1% casein (Sigma) in PBS/Ca/Mg containing 0.05% Tween 20 for 30 minutes at room temperature, followed by the addition of plasma (diluted in PBS/Ca/Mg containing 0.05% Tween 20, 1% v/v goat serum, 0.1% casein) for 1 hour at room temperature. The secondary antibody was diluted 1:10,000 in PBS/Ca/Mg containing 0.05% Tween 20 and 0.1% casein, and added for 1 hour at room temperature. The bound peroxidase-labeled IgG was detected with 3,3′,5,5′-tetramethylbenzidine (TMB, substrate kit; Pierce) and change in absorbance was determined for 5 minutes at […]. In addition, in the ELISA Type-1 procedure, the respective GPIIb/IIIa antagonist (100 nM) was present in the appropriate wells throughout all incubation and washing steps. The ELISA Type-1 procedure with optimized blocking conditions combined with further purification of the GPIIb/IIIa reduced the background, resulting in increased signal to noise ratio. The immunoglobulin class of DDABs was determined using peroxidase-labeled murine monoclonal antibodies to human Ig (Zymed) as the detection step in the modified ELISA protocol. For these experiments, normal goat serum was replaced with normal murine serum (Zymed).
The ability of DDABs present in plasma from a patient and a chimpanzee to bind to immobilized GPIIb/IIIa in the presence of various GPIIb/IIIa antagonists were compared. Results are expressed as the ratio mOD/minute in the presence versus absence of the respective compound.
as §2

[3] = plasma #330 (thrombocytopenic patient treated with Compound A)
[4] = plasma A264 (thrombocytopenic chimpanzee dosed with Compound D)

T1 sequence (P08514 32-887 limits assumed): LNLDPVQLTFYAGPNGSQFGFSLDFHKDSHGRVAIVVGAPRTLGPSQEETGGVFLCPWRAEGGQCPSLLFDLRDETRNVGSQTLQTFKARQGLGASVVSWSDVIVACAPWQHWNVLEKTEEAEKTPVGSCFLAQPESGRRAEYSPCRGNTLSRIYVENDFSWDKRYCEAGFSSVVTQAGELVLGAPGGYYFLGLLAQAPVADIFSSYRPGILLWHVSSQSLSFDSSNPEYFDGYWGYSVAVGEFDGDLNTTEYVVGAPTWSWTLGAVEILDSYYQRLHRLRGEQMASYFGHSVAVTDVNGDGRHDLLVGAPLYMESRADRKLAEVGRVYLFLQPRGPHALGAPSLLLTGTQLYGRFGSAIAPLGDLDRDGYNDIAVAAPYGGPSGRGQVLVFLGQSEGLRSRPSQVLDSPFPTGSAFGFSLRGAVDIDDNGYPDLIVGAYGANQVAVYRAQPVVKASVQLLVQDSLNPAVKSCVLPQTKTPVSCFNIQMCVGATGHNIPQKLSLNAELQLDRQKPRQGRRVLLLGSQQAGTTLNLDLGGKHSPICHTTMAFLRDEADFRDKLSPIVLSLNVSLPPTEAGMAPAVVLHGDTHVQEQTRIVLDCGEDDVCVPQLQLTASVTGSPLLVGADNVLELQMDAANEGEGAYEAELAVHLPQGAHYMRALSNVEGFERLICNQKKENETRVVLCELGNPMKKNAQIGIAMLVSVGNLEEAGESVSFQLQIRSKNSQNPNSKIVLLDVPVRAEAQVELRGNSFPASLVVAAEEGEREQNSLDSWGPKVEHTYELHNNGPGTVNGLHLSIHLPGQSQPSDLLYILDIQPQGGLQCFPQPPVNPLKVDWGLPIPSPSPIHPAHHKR
T1 sequence (P08514 891-1039 limits assumed): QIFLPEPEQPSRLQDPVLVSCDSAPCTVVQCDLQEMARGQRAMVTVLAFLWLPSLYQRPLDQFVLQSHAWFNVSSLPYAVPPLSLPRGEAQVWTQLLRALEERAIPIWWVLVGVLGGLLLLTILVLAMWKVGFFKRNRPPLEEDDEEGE
T1 sequence (P05106 27-788): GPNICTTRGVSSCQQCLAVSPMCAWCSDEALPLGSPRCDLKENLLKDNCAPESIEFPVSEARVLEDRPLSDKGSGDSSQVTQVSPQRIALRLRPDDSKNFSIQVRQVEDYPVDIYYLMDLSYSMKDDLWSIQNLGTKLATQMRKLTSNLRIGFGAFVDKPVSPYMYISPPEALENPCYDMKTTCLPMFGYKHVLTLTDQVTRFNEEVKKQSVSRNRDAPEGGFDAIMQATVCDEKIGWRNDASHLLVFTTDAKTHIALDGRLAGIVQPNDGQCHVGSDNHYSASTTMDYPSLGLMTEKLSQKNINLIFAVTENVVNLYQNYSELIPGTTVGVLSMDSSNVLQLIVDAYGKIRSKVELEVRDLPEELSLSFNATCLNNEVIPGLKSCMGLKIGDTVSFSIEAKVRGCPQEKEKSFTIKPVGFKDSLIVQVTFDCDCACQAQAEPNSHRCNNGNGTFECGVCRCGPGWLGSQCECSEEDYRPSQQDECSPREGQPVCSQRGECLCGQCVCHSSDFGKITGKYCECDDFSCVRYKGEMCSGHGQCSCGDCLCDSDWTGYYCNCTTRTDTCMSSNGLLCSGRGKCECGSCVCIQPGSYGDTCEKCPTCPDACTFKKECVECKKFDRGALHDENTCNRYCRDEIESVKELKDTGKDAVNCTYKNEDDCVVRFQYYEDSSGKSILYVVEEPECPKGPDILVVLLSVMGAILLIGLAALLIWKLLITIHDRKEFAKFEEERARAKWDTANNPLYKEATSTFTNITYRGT
T2 sequence (P08514 32-887 limits assumed): as the sequence (P08514 32-887 limits assumed) above
T2 sequence (P08514 891-1039 limits assumed): as the sequence (P08514 891-1039 limits assumed) above
T2 sequence (P05106 27-788): as the sequence (P05106 27-788) above

SMILES | blood donors with a reactivity with a delta >5 (GPIIb/IIIa) [%] | donors presenting a reactivity (delta>3) (GPIIb/IIIa) [%] | Peak blood concentrations [1] | IC50 [2] [µM] | IC50 (gel purified platelets; estimated, read-out: IC50 (inhibition of DDABs in plasma by distribution to platelets)) [µM] | concentration required to completely shift the DDABs to the platelet surface (gel purified platelets; 30 minutes, room temperature) | ELISA ratio (immobilized GPIIb/IIIa; DDABs in plasma from a patient, binding to GPIIb/IIIa in presence of Compound A or its metabolites) | reactivity of the thrombocytopenic chimpanzee plasma in the DDAB ELISA (immobilized GPIIb/IIIa) | reactivity of the patient's plasma in the DDAB ELISA (immobilized GPIIb/IIIa) | ratio mOD/minute in the presence versus absence of the respective compound (immobilized GPIIb/IIIa; [3]) | ratio mOD/minute in the presence versus absence of the respective compound (immobilized GPIIb/IIIa; [4])
CCCCOC(=O)N[C@@H](CNC(=O)C[C@H]1CC(c2ccc(C(=N)N)cc2)=NO1)C(=O)O [Compound A, 2(S)-[(n-butoxycarbonyl)amino]-3-[[[3-[4-(aminoiminomethyl)phenyl]isoxazolin-5 (R)-yl]methylcarbonyl]amino]propionic acid] | 1.3 | 2.2 | up to 50 nM | 0.032 | ~0.0003 | Less than 1 nM | 13.5 | no reactivity | reacts strongly | 9.2 | 1.0
Cc1noc(C)c1S(=O)(=O)N[C@@H](CNC(=O)C[C@H]1CC(c2ccc(C(=N)N)cc2)=NO1)C(=O)O [Compound B] | 7.1 | 14.6 | – | – | – | – | – | no reactivity | reacts strongly | 11.2 | 0.8
Cc1ccc(S(=O)(=O)N[C@@H](CNC(=O)c2cc3n(n2)CCCN(CCC2CCNCC2)C3=O)C(=O)O)cc1 [Compound C, 2(S)-((4-methylphenylsulfonyl)amino]-3-[[[5,6,7,8-tetrahydro-4-oxo-5-[2-(piperidin-4-yl)ethyl]-4H-pyrazolo-[1,5-a][1,4]diazepin-2-yl]carbonyl]amino]propionic acid] | – | – | – | – | – | – | – | less | no reactivity | 1.0 | 5.4
O=C(NC[C@H](NS(=O)(=O)c1cccnc1)C(=O)O)c1cc2cc(CCC3CCNCC3)sc2s1 [Compound D, 5-[2-(piperdin-4-yl)ethyl]thieno[2,3-b]thiophene-2-N-(3-2(S)-(3-pyridinylsulfonylamino)propionic acid]carboxamide] | – | – | – | – | – | – | – | strongly reactive | reacts strongly | 4.9 | 14.4
